Measured values: PubChem BioAssay (NCI)
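Each compound was tested at five concentrations against cells in 96-well plates for 48 hours. GI50 = concentration required for 50% inhibition of growth. Definition used: TGI = concentration required for complete inhibition of growth.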

Columns and labels:
Assay in all cases: NCI-60 cell line screen, 48 h
OVCAR-3 ovarian = tested on: OVCAR-3 ovarian
OVCAR-8 ovarian = tested on: OVCAR-8 ovarian
NCI/ADR-RES ovarian = tested on: NCI/ADR-RES ovarian
SW-620 colon = tested on: SW-620 colon
SK-MEL-2 melanoma = tested on: SK-MEL-2 melanoma
OVCAR-5 ovarian = tested on: OVCAR-5 ovarian
HT29 colon = tested on: HT29 colon
UO-31 renal = tested on: UO-31 renal
HCT-116 colon = tested on: HCT-116 colon
HOP-92 NSCLC = tested on: HOP-92 NSCLC

| Compound | GI50 (OVCAR-3 ovarian) | TGI (OVCAR-3 ovarian) | GI50 (OVCAR-8 ovarian) | TGI (OVCAR-8 ovarian) | GI50 (NCI/ADR-RES ovarian) | TGI (NCI/ADR-RES ovarian) | GI50 (SW-620 colon) | TGI (SW-620 colon) | GI50 (SK-MEL-2 melanoma) | TGI (SK-MEL-2 melanoma) | GI50 (OVCAR-5 ovarian) | TGI (OVCAR-5 ovarian) | GI50 (HT29 colon) | TGI (HT29 colon) | GI50 (UO-31 renal) | TGI (UO-31 renal) | GI50 (HCT-116 colon) | TGI (HCT-116 colon) | GI50 (HOP-92 NSCLC) | TGI (HOP-92 NSCLC) |
| --- | --- | --- | --- | --- | --- | --- | --- | --- | --- | --- | --- | --- | --- | --- | --- | --- | --- | --- | --- | --- |
| COc1ccc(/C=C2\CN(Cc3cn(CCCNc4ccnc5cc(Cl)ccc45)nn3)C/C(=C\c3ccc(OC)cc3)C2=O)cc1 | 4.91 µM | 18.1 µM | 2.06 µM | 5.64 µM | 3.15 µM | 14.5 µM | 1.69 µM | 3.57 µM | 9.85 µM | 39.6 µM | 21 µM | 44.2 µM | 1.82 µM | 6.38 µM | 3.85 µM | 21.4 µM | 2.8 µM | 12.4 µM | 0.962 µM | 15.9 µM |
| COc1ccc(/C(C)=C(\c2ccc(Cl)cc2)c2ccc(OCCN3CCCCC3)cc2)cc1F | 3.25 µM | 6.65 µM | 4.11 µM | 12.4 µM | 3.53 µM | 9.67 µM | 2.34 µM | 5.35 µM | 3.53 µM | 7.65 µM | 3.06 µM | 9.45 µM | 0.65 µM | > 16.7 µM | 2.05 µM | 4.21 µM | 2.04 µM | 5.14 µM | 2.5 µM | 6.08 µM |
| Cn1c([N+](=O)[O-])cnc1/C=C1\Oc2ccc(Cl)cc2C1=O | 0.307 µM | 0.952 µM | 0.33 µM | – | 0.534 µM | > 22.5 µM | 0.181 µM | 0.66 µM | 0.901 µM | 3.04 µM | 2.16 µM | 6.53 µM | 0.254 µM | 0.757 µM | 0.394 µM | 2.97 µM | 0.247 µM | 0.793 µM | 1.03 µM | 4.12 µM |
| COc1cc(C2C3=C(COC3=O)N(CCO)c3cc4c(cc32)CCC4)cc(OC)c1OC (stereo unspecified) | 0.0595 µM | 0.129 µM | 0.118 µM | > 32.5 µM | 0.709 µM | 4.45 µM | 0.126 µM | > 32.5 µM | 0.146 µM | > 9.09 µM | 0.164 µM | > 32.5 µM | 0.0975 µM | – | 0.228 µM | > 17 µM | 0.0919 µM | 0.409 µM | 0.862 µM | > 25.3 µM |
| CNCc1ccc(C)c(NC(=O)c2ccc(Nc3nc(-c4ccccc4)c4ccccc4n3)cc2)c1 | 1.9 µM | 3.84 µM | 1.85 µM | 3.93 µM | 2.25 µM | 5.25 µM | 1.84 µM | 3.57 µM | 1.9 µM | 3.66 µM | 2.13 µM | 4.56 µM | 1.86 µM | 3.98 µM | 1.67 µM | 3.75 µM | 1.68 µM | 3.1 µM | 0.687 µM | 3.24 µM |
| Cn1cnc2nc(Cl)nc(Cl)c21 | 1.84 µM | 6.12 µM | 3.5 µM | 26.2 µM | 2.76 µM | 13 µM | 0.469 µM | 15.5 µM | 2.7 µM | 10.2 µM | 3.56 µM | 19.9 µM | 0.365 µM | 12.6 µM | 9.96 µM | > 100 µM | 0.323 µM | 13.3 µM | 2.09 µM | 10.5 µM |
| CC(=O)OC1C(OC/C2=C/C3[C@@H](C(C)C)CC=C(C)[C@@H]3CC(OC(=O)/C=C/c3cn(C)cn3)[C@]3(C)C=C[C@@]2(O)O3)OCC(O)C1O (stereo partly specified) | 0.0105 µM | 0.0268 µM | 0.0443 µM | > 50 µM | 4.81 µM | > 39.4 µM | 0.0188 µM | > 50 µM | 0.0199 µM | – | 0.0207 µM | – | 0.0124 µM | > 50 µM | 1.13 µM | > 50 µM | 0.011 µM | > 50 µM | 1.02 µM | > 50 µM |
| COc1cc2c(cc1Nc1nc(Nc3ccsc3C(N)=O)c3cc[nH]c3n1)N(C(=O)CN(C)C)CCC2 | 0.618 µM | 2.13 µM | 0.842 µM | > 11.2 µM | 4.75 µM | > 25 µM | 0.0726 µM | > 25 µM | 0.726 µM | 4.58 µM | 0.109 µM | 3.66 µM | < 0.0025 µM | 0.681 µM | 3.35 µM | 7.39 µM | 0.458 µM | 3.79 µM | < 0.0025 µM | 1.19 µM |
| CCOC(=O)c1ccccc1NC(c1ccccc1)c1ccc2cccnc2c1O (stereo unspecified) | 3.85 µM | 23.4 µM | 3.31 µM | 52.2 µM | 2.78 µM | 21.4 µM | 3.89 µM | > 100 µM | 3.74 µM | 45.1 µM | 8.64 µM | > 100 µM | 4.58 µM | > 100 µM | 2.03 µM | > 100 µM | 3.41 µM | 80.1 µM | 7.98 µM | > 100 µM |
| COc1c(C)cnc(Cn2cnc3c(Cl)nc(N)nc32)c1C | 0.658 µM | > 100 µM | 0.323 µM | > 100 µM | 0.509 µM | > 100 µM | 0.113 µM | > 100 µM | 0.434 µM | > 59.5 µM | 1.13 µM | > 100 µM | 0.0654 µM | > 100 µM | 0.141 µM | > 47.4 µM | 0.12 µM | > 100 µM | 0.467 µM | 2.8 µM |
| C=CC(=O)N1CC[C@@H](Oc2nc(Nc3ccc(N4CCC(N5CCN(C)CC5)CC4)cc3)c(C(N)=O)nc2CC)C1 | > 100 µM | > 100 µM | > 100 µM | > 100 µM | > 100 µM | > 100 µM | > 100 µM | > 100 µM | > 100 µM | > 100 µM | > 100 µM | > 100 µM | > 100 µM | > 100 µM | > 100 µM | > 100 µM | > 100 µM | > 100 µM | > 100 µM | > 100 µM |
| COC(=O)c1cc2c([nH]c3ccccc32)c(-c2nc3cc(N(S(=O)(=O)c4ccc(C)cc4)S(=O)(=O)c4ccc(C)cc4)c(OC)cc3cc2CO)n1 | > 100 µM | > 100 µM | > 100 µM | > 100 µM | > 100 µM | > 100 µM | > 100 µM | > 100 µM | > 100 µM | > 100 µM | > 100 µM | > 100 µM | > 100 µM | > 100 µM | > 100 µM | > 100 µM | > 100 µM | > 100 µM | > 100 µM | > 100 µM |
| CC[N+]1(C)CCC(O)(/C=C/c2ccccc2)C(C(=O)/C=C/c2ccccc2)C1 (stereo unspecified) | – | 28 µM | – | 43 µM | – | > 100 µM | – | 6.45 µM | – | 39.5 µM | – | 36.1 µM | – | 27.5 µM | – | 29.5 µM | – | 38 µM | – | 31.4 µM |
| CCN(CC)CCC(CNc1c2ccc(Cl)cc2nc2ccc(OC)cc12)c1ccccc1 (stereo unspecified) | 1.71 µM | 4.7 µM | 1.26 µM | 3.6 µM | 1.28 µM | 5.12 µM | 0.538 µM | 2.15 µM | 1.76 µM | 3.31 µM | 1.94 µM | 5.64 µM | 0.219 µM | 0.664 µM | 1.3 µM | 3.27 µM | 0.729 µM | 3.52 µM | 1.79 µM | 3.86 µM |
| N#Cc1c(-c2ccc(Cl)cc2)n([O-])c2ccccc2[n+]1=O | 1.27 µM | 2.88 µM | 9.68 µM | 39 µM | 4.05 µM | 16.1 µM | 12.7 µM | 34.1 µM | 37.3 µM | > 100 µM | 16.7 µM | 30.6 µM | 17.2 µM | 42.2 µM | 13.7 µM | 29.7 µM | 3.03 µM | 11.1 µM | 1.61 µM | 3.24 µM |
| O=C(NC(c1ccccc1)C(O)C(=O)OCc1ccc2c(c1)C(=O)c1ccccc1C2=O)c1ccccc1 (stereo unspecified) | – | 34.6 µM | – | 41 µM | – | 33.9 µM | – | > 100 µM | – | 86.9 µM | – | 79.9 µM | – | > 85.2 µM | – | 10.1 µM | – | 39.1 µM | – | 7.91 µM |
| CCOC(=O)C(Cc1ccc(N(CCCl)CCCl)cc1)NC(=O)C(CC(C)C)NC(C)=O (stereo unspecified) | 0.332 µM | 1.4 µM | 1.02 µM | 5.18 µM | 2.14 µM | 16.9 µM | 1.08 µM | 6.03 µM | 2.61 µM | 5.13 µM | 3.18 µM | 12 µM | 1.28 µM | 5.68 µM | 0.512 µM | 2.91 µM | 1.06 µM | 3.56 µM | 0.727 µM | 2.82 µM |
| Cc1ccc(S(=O)(=O)NC(CCCCN)C(=O)CCl)cc1 (stereo unspecified) | 33.2 µM | > 100 µM | > 100 µM | > 100 µM | 81.3 µM | > 100 µM | 43.1 µM | > 100 µM | 67.5 µM | > 100 µM | > 100 µM | > 100 µM | > 100 µM | > 100 µM | > 100 µM | > 100 µM | 90.7 µM | > 100 µM | 20.2 µM | 67.1 µM |
| C#Cc1cccc(NC(=O)Nc2cccc(NC(=O)CCl)c2)c1 | 14.6 µM | 36.5 µM | 23.1 µM | > 82.5 µM | 20.1 µM | 75.7 µM | 16.9 µM | 37.3 µM | 32.7 µM | > 82.5 µM | 21.9 µM | 63.9 µM | 17.8 µM | 53.5 µM | > 82.5 µM | > 82.5 µM | 20.9 µM | > 82.5 µM | > 82.5 µM | > 82.5 µM |
| Cn1cc(C2=C(c3cn(CCCSC(=N)N)c4ccccc34)C(=O)NC2=O)c2ccccc21 | 2.4 µM | 9.28 µM | 4 µM | 11.4 µM | > 25 µM | > 25 µM | 1.66 µM | 5.51 µM | 1.53 µM | 5.2 µM | 4.51 µM | 18.6 µM | 2.73 µM | 11.1 µM | 5.59 µM | 16.2 µM | 1.1 µM | 4.62 µM | 3.83 µM | 11.2 µM |
| C/C=C\C(C)=C/C(C)C(=O)CC(O)CC1CC(=O)NC(=O)C1 (stereo unspecified) | – | > 100 µM | – | 98.8 µM | – | 48.2 µM | – | > 100 µM | – | > 100 µM | – | > 100 µM | – | > 100 µM | – | > 100 µM | – | > 100 µM | – | > 100 µM |
| N#CC1=C(N)Oc2c(ccc3ccccc23)C1c1ccccc1Cl (stereo unspecified) | 0.197 µM | 0.493 µM | 0.542 µM | > 57.7 µM | 0.133 µM | 5.62 µM | 0.172 µM | 14.7 µM | 0.558 µM | 18 µM | 0.545 µM | 18.8 µM | 0.362 µM | 12.6 µM | 0.282 µM | 24.8 µM | 0.275 µM | 5.41 µM | 2.24 µM | 15.1 µM |
